{
  "source": "patent US20190307754A1",
  "about": "“PDE9 INHIBITORS FOR TREATMENT OF PERIPHERAL DISEASES” (IMARA, INC., priority 2016, published 2019)",
  "key": {"[1]": {"tested_on": "K562 erythroleukemic cells", "assay": "cGMP in cultured K562 cells", "type": "cell-based", "conditions": "16 hours", "procedure": "Hydroxyurea was included as a comparator as it is currently the only FDA approved treatment for this disease (Charache et al., N Engl J Med., 332(20):1317-22. (1995)). One of the proposed mechanisms of action of HU in SCD is that it may generate NO and modulation of intracellular levels of the NO second messenger, cGMP, may represent an effective and cell-specific approach for amplifying intracellular NO-dependent signaling.\nK562 cells were cultured at 37° C. in IMDM® to which the required concentrations of test items or dimethyl sulfoxide (DMSO; negative Control) had been added. Plated cells were maintained at 37° C. for 16 hours at the end of which the amount of cGMP was detected by enzyme immunoassay."}, "[2]": {"tested_on": "Berkeley sickle cell transgenic mice", "assay": "HbF positive and sickled red blood cells in Berkeley sickle cell transgenic mice", "type": "in vivo", "conditions": "30 mg/kg/day Compound P3.1 or 100 mg/kg/day HU, gavage, 30 days", "procedure": "This study assessed the effects of chronic dosing (30 day) of Compound P3.1 and HU on HbF and cell sickling in a mouse model of sickle cell disease. Berkeley sickle cell transgenic mice (Hbatm1PazHbbtm1Tow Tg(HBA-HBBs)41Paz/J) were divided into groups of 7 to 8 animals and were dosed once daily, by gavage, for 30 days with either vehicle (PEG:water), 30 mg/kg/day of Compound P3.1, or 100 mg/kg/day of HU. This mouse genotype mimics the genetic, hematologic and histopathologic features that are found in humans afflicted with sickle cell anemia, including irreversibly sickled RBCs, anemia and multi-organ pathology. Blood was collected from treated animals on Day 30 for limited routine hematology as well as derivation of the percent of sickled and HbF positive RBCs and total bilirubin. At termination, the spleen was removed and weighed."}, "[3]": {"assay": "Pharmacokinetics of single oral and IV dose in CD1 mice", "type": "in vivo", "procedure": "(§1) Blood samples were taken at 2 minutes (IV only), then 8, 15, 30 minutes, and 1, 2, 4, 8, and 24 hours after dosing and analyzed for key PK parameters. In the rats, brain samples were taken at 24 hours and analyzed for Compound P3.1. To evaluate the penetration of Compound P3.1 across the blood-brain barrier (BBB), 10 additional rats received IV Compound P3.1 3 mg/kg and plasma and brain concentrations of Compound P3.1 were determined from 2 animals at 15 minutes, 30 minutes and 1, 2, and 4 hours after dosing."}, "[4]": {"assay": "Pharmacokinetics in mice and rats (statements for both species)", "type": "in vivo", "conditions": "for half-life: read-out: elimination half-life (converted)", "procedure": "The PK evaluation of Compound P3.1 included Absorption, Distribution, Metabolism, and Excretion (ADME) studies, as well as assessment for CYP enzyme inhibition.\nas §1"}, "[5]": {"assay": "Brain and plasma concentrations after single IV dose in rat", "type": "in vivo", "conditions": "for Mean Plasma/Brain Ratio / Concentration Brain / Concentration Plasma / Plasma/Brain Ratio: 3 mg/kg IV; for Concentration Brain / Concentration Plasma / Plasma/Brain Ratio: individual animals, 3 mg/kg", "procedure": "as §1"}, "[6]": {"target": "T1, MDR1 (P-gp) (Homo sapiens, UniProt P08183)", "T1 construct": "expressed in transfected cells; host or cells: MDCK-MDR1 cells", "T1 sequence (P08183 whole entry)": "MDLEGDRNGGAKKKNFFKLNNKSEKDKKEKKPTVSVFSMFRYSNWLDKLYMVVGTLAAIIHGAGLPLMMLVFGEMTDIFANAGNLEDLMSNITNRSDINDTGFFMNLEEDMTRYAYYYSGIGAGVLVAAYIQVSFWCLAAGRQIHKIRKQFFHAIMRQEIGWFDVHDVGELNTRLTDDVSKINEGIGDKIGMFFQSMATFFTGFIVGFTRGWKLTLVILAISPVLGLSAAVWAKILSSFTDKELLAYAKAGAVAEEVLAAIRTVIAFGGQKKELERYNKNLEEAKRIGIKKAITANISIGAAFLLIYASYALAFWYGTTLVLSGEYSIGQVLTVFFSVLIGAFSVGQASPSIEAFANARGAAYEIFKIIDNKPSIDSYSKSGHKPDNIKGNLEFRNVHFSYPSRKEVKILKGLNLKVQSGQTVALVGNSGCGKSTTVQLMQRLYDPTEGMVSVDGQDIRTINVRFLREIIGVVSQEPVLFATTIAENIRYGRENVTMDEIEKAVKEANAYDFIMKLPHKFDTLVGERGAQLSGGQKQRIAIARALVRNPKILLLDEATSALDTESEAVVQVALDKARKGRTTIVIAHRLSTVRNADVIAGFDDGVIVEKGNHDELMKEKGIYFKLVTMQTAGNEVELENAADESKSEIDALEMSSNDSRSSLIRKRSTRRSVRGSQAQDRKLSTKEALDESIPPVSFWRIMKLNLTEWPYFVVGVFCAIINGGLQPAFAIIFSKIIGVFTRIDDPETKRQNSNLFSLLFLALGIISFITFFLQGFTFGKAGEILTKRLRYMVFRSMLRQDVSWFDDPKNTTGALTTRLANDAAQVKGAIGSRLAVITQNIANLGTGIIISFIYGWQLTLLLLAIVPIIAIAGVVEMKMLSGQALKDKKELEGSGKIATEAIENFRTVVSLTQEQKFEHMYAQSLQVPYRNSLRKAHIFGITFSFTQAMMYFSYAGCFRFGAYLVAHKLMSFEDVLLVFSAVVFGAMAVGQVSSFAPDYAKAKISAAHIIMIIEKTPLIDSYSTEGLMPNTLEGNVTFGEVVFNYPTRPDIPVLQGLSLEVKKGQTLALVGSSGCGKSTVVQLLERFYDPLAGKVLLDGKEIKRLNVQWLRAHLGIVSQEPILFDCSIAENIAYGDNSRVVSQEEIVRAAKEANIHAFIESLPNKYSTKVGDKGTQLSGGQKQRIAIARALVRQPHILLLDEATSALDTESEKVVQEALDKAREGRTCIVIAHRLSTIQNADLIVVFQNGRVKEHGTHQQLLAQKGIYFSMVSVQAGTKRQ", "assay": "Bi-directional permeability across MDCK-MDR1 cell monolayer", "type": "in vitro ADME", "conditions": "human"}, "[7]": {"target": "T2, MDR1 (human P-gp) efflux transporter (Homo sapiens, UniProt P08183)", "T2 construct": "expressed in transfected cells; host or cells: MDCK-MDR1 cells", "T2 sequence (P08183 whole entry)": "as above", "assay": "Bi-directional permeability across MDCK-MDR1 cell monolayer", "type": "in vitro ADME"}, "[8]": {"tested_on": "rat", "assay": "In vivo rat micronucleus study", "excerpt": "The genotoxicity evaluation of Compound P3.1 consisted of a bacterial reverse mutation assay, a chromosome aberration study, and a in vivo rat micronucleus study. Compound P3.1 was negative in all 3 assays."}, "[9]": {"tested_on": "CD34+ derived red blood cells from SCD subjects", "conditions": "10 μM Compound P3.1, 5 days"}, "[10]": {"conditions": "mouse, blood, CD1 mice, 3 mg/kg IV"}, "[11]": {"conditions": "mouse, blood, CD1 mice, 10 mg/kg oral"}},
  "note": "Where “and” joins values, the source holds several entries; their conditions need not be identical. Identical values can stand only once. Marks after values point to notes of the source that are not given here.",
  "data": [
    {"smiles": "C[C@@H]1CN(Cc2ncccn2)C[C@H]1c1cn2c(C3CCOCC3)ncc2c(=O)[nH]1", "note": "(single isomer, unassigned) [Compound P3.1]", "values": [
      {"measurement": "cGMP concentration at 1 μM compared with 100 μM HU", "setting": "[1]; 1 μM", "value": "approximately the same value elicited by 100 μM HU"},
      {"measurement": "cGMP level", "setting": "[1]; 10 μM", "value": 12.61, "unit": "pg/mg"},
      {"measurement": "effect on cGMP levels", "setting": "[1]", "value": "dose-dependent and statistically significant increases in cGMP levels"},
      {"measurement": "RBC count, hemoglobin concentration or hematocrit", "setting": "[2]", "value": "not associated with any apparent alterations"},
      {"measurement": "neutrophil levels", "setting": "[2]", "value": "reduced neutrophil levels"},
      {"measurement": "spleen weight", "setting": "[2]", "value": "statistically significant decreases"},
      {"measurement": "total bilirubin", "setting": "[2]", "value": "statistically significant decreases"},
      {"measurement": "total leucocyte count", "setting": "[2]", "value": "statistically significant decreases"},
      {"measurement": "percentage of HbF positive RBCs", "setting": "[2]; vs controls", "value": "increases in the percentage of HbF positive RBCs"},
      {"measurement": "percentage of sickled RBCs", "setting": "[2]; vs controls", "value": "statistically significant decreases in the percentage of sickled RBCs"},
      {"measurement": "bioavailability", "setting": "[3]; CD1, mouse, plasma, po, 10 mg/kg, read-out: oral bioavailability Flast", "value": 44.6, "unit": "%"},
      {"measurement": "Cl_obs", "setting": "[3]; CD1 mice, 3 mg/kg IV", "value": 30.7, "unit": "mL/min/kg"},
      {"measurement": "Flast", "setting": "[3]; CD1 mice, 10 mg/kg oral", "value": 63.4, "unit": "%"},
      {"measurement": "Vss obs", "setting": "[3]; CD1 mice, 10 mg/kg oral", "value": "63.4** L/kg"},
      {"measurement": "continuously exposed out to", "setting": "[3]; mice, 10 mg/kg oral", "value": 4, "unit": "h"},
      {"measurement": "AUC(0-t)", "setting": "[3]; [10]", "value": 1630, "unit": "ng·h/mL"},
      {"measurement": "C0", "setting": "[3]; [10]", "value": 4430, "unit": "ng/mL"},
      {"measurement": "MRT", "setting": "[3]; [10]", "value": 26.4, "unit": "min"},
      {"measurement": "half-life", "setting": "[3]; [10]", "value": 37.8, "unit": "min"},
      {"measurement": "Vd", "setting": "[3]; mouse, blood, CD1 mice, 3 mg/kg IV, read-out: Vss obs", "value": 0.89, "unit": "L/kg"},
      {"measurement": "AUC(0-t)", "setting": "[3]; [11]", "value": 3440, "unit": "ng·h/mL"},
      {"measurement": "C0", "setting": "[3]; [11]", "value": 2750, "unit": "ng/mL"},
      {"measurement": "Tmax", "setting": "[3]; [11]", "value": 30, "unit": "min"},
      {"measurement": "half-life", "setting": "[3]; [11]", "value": 48.6, "unit": "min"},
      {"measurement": "plasma concentrations by 24 hours", "setting": "[4]; 10 mg/kg oral, both species", "value": "below the lower limit of quantification (LLOQ)"},
      {"measurement": "Tmax", "setting": "[4]; CD1 (mouse), Sprague Dawley (rat), mouse, rat, plasma, 10 mg/kg, oral, mice and rats, read-out: time of maximum concentration (Tmax)", "value": "30 to 60", "unit": "min"},
      {"measurement": "half-life", "setting": "[4]; CD1 (mouse), Sprague Dawley (rat), mouse, rat, plasma, oral, intravenous, mice and rats", "value": "< 180", "unit": "min"},
      {"measurement": "half-life", "setting": "[4]; CD1 (mouse), Sprague Dawley (rat), mouse, rat, plasma, other: oral and intravenous (both routes), mice and rats", "value": "~180", "unit": "min"},
      {"measurement": "plasma concentration by 24 hours", "setting": "[4]; IV, both species", "value": "below the LLOQ"},
      {"measurement": "Mean Plasma/Brain Ratio", "setting": "[5]; 0.25 h post dose", "value": 20.2},
      {"measurement": "Concentration Brain", "setting": "[5]; 0.25 h post dose", "value": "111 and 112"},
      {"measurement": "Concentration Plasma", "setting": "[5]; 0.25 h post dose", "value": "2400 and 2110"},
      {"measurement": "Plasma/Brain Ratio", "setting": "[5]; 0.25 h post dose", "value": "21.6 and 18.8"},
      {"measurement": "Mean Plasma/Brain Ratio", "setting": "[5]; 0.5 h post dose", "value": 25.1},
      {"measurement": "Concentration Brain", "setting": "[5]; 0.5 h post dose", "value": "82.5 and 50.7"},
      {"measurement": "Concentration Plasma", "setting": "[5]; 0.5 h post dose", "value": "1790 and 1450"},
      {"measurement": "Plasma/Brain Ratio", "setting": "[5]; 0.5 h post dose", "value": "21.7 and 28.6"},
      {"measurement": "Mean Plasma/Brain Ratio", "setting": "[5]; 1 h post dose", "value": 23.1},
      {"measurement": "Concentration Brain", "setting": "[5]; 1 h post dose", "value": "28.6 and 44.1"},
      {"measurement": "Concentration Plasma", "setting": "[5]; 1 h post dose", "value": "647 and 1040"},
      {"measurement": "Plasma/Brain Ratio", "setting": "[5]; 1 h post dose", "value": "22.6 and 23.6"},
      {"measurement": "Mean Plasma/Brain Ratio", "setting": "[5]; 2 h post dose", "value": 33.1},
      {"measurement": "Concentration Brain", "setting": "[5]; 2 h post dose", "value": "8.88 and 5.34"},
      {"measurement": "Concentration Plasma", "setting": "[5]; 2 h post dose", "value": "245 and 206"},
      {"measurement": "Plasma/Brain Ratio", "setting": "[5]; 2 h post dose", "value": "27.6 and 38.6"},
      {"measurement": "Concentration Plasma", "setting": "[5]; 4 h post dose", "value": "59.8 and 107"},
      {"measurement": "brain concentration at 4 hours postdose", "setting": "[5]; IV dosing, 4 hours postdose", "value": "no longer detectable in the brain"},
      {"measurement": "efflux ratio", "setting": "[6]", "value": 180},
      {"measurement": "MDR1 efflux transporter substrate", "setting": "[7]", "value": "strong MDR1 (human P-gp) efflux transporter substrate"},
      {"measurement": "genotoxicity, in vivo rat micronucleus study", "setting": "[8]", "value": "negative"},
      {"measurement": "amount of HbF within cells (mean MFI)", "setting": "[9]", "value": "10,840"},
      {"measurement": "mean MFI of HbF relative to controls", "setting": "[9]", "value": 145, "unit": "%"},
      {"measurement": "percentage of HbF positive CD36+ cells (mean)", "setting": "[9]; 5 SCD subjects", "value": 24.6, "unit": "%"}
    ]}
  ]
}
